Test results: PMC5338256, “D-form KLKLLLLLKLK-NH2 peptide exerts higher antimicrobial properties than its L-form counterpart via an association with bacterial cell wall components” (Scientific Reports, 2017)
In brackets after ≈: the same amount, converted by molar mass. Where two headings read alike, the source gives them in different places. Non-standard residues stand in square brackets, D forms with d. Residues, ends and D or L forms follow the SMILES beside them. No end group written: not given here.

Experiments:
S. aureus [1] = assay type: cell-based, Staphylococcus aureus (NBRC100910)
Procedure: (§1) S. aureus (NBRC100910), E. coli W3110 (NBRC12713), E. hirae (NBRC3181), C. albicans (NBRC1385), and S. Typhimurium 14028s (ATCC14028)[2] were used in this study. S. aureus, E. coli, and S. Typhimurium were grown at 37 °C with aeration in Muller-Hinton II medium (BD Biosciences). E. hirae was grown at 37 °C in LB medium (Nacalai Tesque, Inc.) containing 0.5% glucose (w/v). C. albicans was grown at room temperature with aeration in YM medium (BD Biosciences). All experiments were conducted using bacterial cells and C. albicans in the logarithmic-phase of growth.
(§2) Bacterial suspensions in Muller-Hinton II medium were adjusted to an optical density of 550 nm (OD550) = 0.0011. C. albicans suspensions in YM medium were adjusted to OD650 = 0.033. Peptides were serially diluted in 10 mM phosphate buffer (pH 6.0) containing 130 mM sodium chloride, 0.2% bovine serum albumin, and 2.56% dimethyl sulfoxide. The peptide solution (100 μl) was mixed with 100 μl of bacteria or C. albicans suspensions. Bacterial cultures were incubated for one day at 37 °C. C. albicans cultures were incubated for two days at room temperature. Cell growth was monitored optically and the MIC was determined.

Gram-positive bacteria = details: cited from earlier work
Excerpt: Sapecin B is an antimicrobial peptide that was originally isolated from the culture medium of an embryonic cell line, NIH-Sape-4, derived from Sarcophaga peregrine (flesh fly). […] Two other related proteins, sapecin and sapecin C, were also isolated from culture medium of NIH-Sape-4[13][14][15]. Sapecin B has significant sequence similarity to a scorpion venom toxin, charybdotoxin[13][16]. Structural comparison of sapecin B and charybdotoxin identified the undecapeptide RSLCLLHCRLK-NH2, which corresponds to amino acid residues 7 to 1 ...

S. aureus [2] = experiment: Assay for antimicrobial activity (10 min exposure, CFU); assay type: cell-based, Staphylococcus aureus (NBRC100910); details: 10 min at 37 °C, standard assay with culture medium and 0.2% BSA, triplicate plates
Procedure: as §1
(§3) Bacteria and C. albicans were suspended in growth medium. Peptides suspended in dimethyl sulfoxide were serially diluted in 10 mM phosphate buffer (pH 6.0) containing 130 mM sodium chloride, 0.2% bovine serum albumin as described previously. In order to examine the effects of bovine serum albumin on the assay, 10 mM phosphate buffer (pH 6.0) containing 130 mM sodium chloride, was used for the dilution of peptides. Peptide solution (500 μl) was added to 500 μl of bacteria suspensions and then the mixture was incubated at 37 °C for 10 min. In order to examine the effects of culture medium components on the assay, bacteria suspension was prepared with 10 mM phosphate buffer (pH 6.0) containing 130 mM sodium chloride. Alternatively, 500 μl of peptide solution was added to 500 μl of C. albicans suspensions and the mixture was incubated at room temperature for 10 min. The inhibitory effects of the bacterial components were analyzed by incubating 450 μl of S. aureus suspension with 500 μl of peptide solution plus 50 μl of inhibitor samples at 37 °C for 10 min. Then, the peptide/bacteria suspensions were diluted and plated onto LB agar, LB agar containing 0.5% glucose, or YM agar. After cultivation of the plates, colony forming units (CFU) in the peptide/bacteria suspension were calculated based on the average of triplicate plates.

S. aureus [3] = experiment: Assay for membrane permeability (ethidium influx); assay type: cell-based, Staphylococcus aureus; details: 20 μg/ml peptide, fluorescence for 180 sec, 10 mM phosphate buffer pH 6.0, 130 mM NaCl, 0.2% BSA
Procedure: To examine membrane permeability, ethidium influx rates were examined as previously described. S. aureus suspension cultures were adjusted to an OD600 of 0.4 in 10 mM phosphate buffer (pH 6.0) containing 130 mM sodium chloride and 0.2% bovine serum albumin. Then, peptide in dimethyl sulfoxide (8 μl) or dimethyl sulfoxide alone (8 μl) was added to 2 ml of S. aureus suspensions. At 30 sec after the addition of peptide, ethidium bromide was added to a final concentration of 5 μg/ml, and fluorescence of the ethidium-nucleic acid complex was monitored using a RF-5300PC spectrofluorometer (Shimadzu). Excitation and emission wavelengths were 545 nm with 5 nm slits and 600 nm with 10 nm slits, respectively.

S. aureus [4] = experiment: Inhibition of antimicrobial activity by bacterial cell wall components; assay type: cell-based, Staphylococcus aureus; details: Kn2–7 6.25 μg/ml, Mastoparan M 8 μg/ml, 10 min
Procedure: as §3
Peptidoglycan (120 μg) prepared from S. aureus was added to 1 mg/ml of lysozyme in phosphate buffered saline (150 μl)[33]. Peptidoglycan without lysozyme and lysozyme without peptidoglycan were also prepared as controls. Samples were incubated overnight at 37 °C, and then incubated at 100 °C for 15 min to inactivate lysozyme. For heat-inactivation of peptidoglycan, 600 μg of peptidoglycan suspended in water (300 μl) was incubated at 100 °C for 15 min. The samples were sonicated for 10 sec at setting 1 using a Branson sonifier model S-150D. These samples were used as inhibitor samples for antimicrobial activity assays.

E. coli = assay type: cell-based, Escherichia coli W3110 (NBRC12713); details: pH 6
Procedure: as §1, §2

C. albicans = assay type: cell-based, Candida albicans (NBRC1385)
Procedure: as §1, §2

S. aureus [5] = experiment: Peptide degradation in the S. aureus assay mixture (SDS-PAGE, Ruby stain); assay type: in vitro ADME, Staphylococcus aureus; details: 15 μg/ml peptide with S. aureus, 10 min at 37 °C, antimicrobial assay mixture, Ruby protein gel stain
[6] = S. aureus, Muller-Hinton II medium mixed 1:1 with peptide in 10 mM phosphate buffer pH 6.0, 130 mM NaCl, 0.2% BSA, 2.56% DMSO, one day at 37 °C, growth monitored optically

INLKAIAALAKKLL-NH2 [L-form INLKAIAALAKKLL-NH2, reference compound]
MIC (S. aureus [1]; [6]): 16 µg/mL

RSLCLLHCRLK-NH2 [undecapeptide, amino acid residues 7 to 17 of sapecin B with C-terminal amidation]
antimicrobial activity (Gram-positive bacteria): significant antimicrobial activity

FIKRIARLLRKIF-NH2 [L-form FIKRIARLLRKIF-NH2, reference compound]
MIC (S. aureus [1]; [6]): 4 µg/mL

CC(C)C[C@@H](NC(=O)[C@H](N)CCCCN)C(=O)N[C@H](CCCCN)C(=O)N[C@H](CC(C)C)C(=O)N[C@H](CC(C)C)C(=O)N[C@H](CC(C)C)C(=O)N[C@H](CCCCN)C(=O)N[C@H](CC(C)C)C(=O)N[C@H](CCCCN)C(N)=O [D-form KLKLLLKLK-NH2] (H-[dK][dL][dK][dL][dL][dL][dK][dL][dK]-NH2; N-terminus assumed)
fold by which the MIC of the D-form is lower than that of the L-form (S. aureus [1]; S. aureus): more than 32 fold | MIC (S. aureus [1]; [6]): 4 µg/mL (≈ 3.65 µM) | antimicrobial activity (CFU), D-form compared with L-form (S. aureus [2]): higher

CC[C@@H](C)[C@@H](N)C(=O)N[C@H](CC(N)=O)C(=O)N[C@H](CC(C)C)C(=O)N[C@H](CCCCN)C(=O)N[C@H](C)C(=O)N[C@@H](C(=O)N[C@H](C)C(=O)N[C@H](C)C(=O)N[C@H](CC(C)C)C(=O)N[C@H](C)C(=O)N[C@H](CCCCN)C(=O)N[C@H](CCCCN)C(=O)N[C@H](CC(C)C)C(=O)N[C@H](CC(C)C)C(N)=O)[C@H](C)CC [D-form INLKAIAALAKKLL-NH2, reference compound] (H-[dI][dN][dL][dK][dA][dI][dA][dA][dL][dA][dK][dK][dL][dL]-NH2)
MIC (S. aureus [1]; [6]): 16 µg/mL (≈ 10.8 µM) | ethidium bromide influx rate (S. aureus [3]): increased ethidium bromide influx rates to a similar extent | inhibitory effect of S. aureus peptidoglycan on the antimicrobial activity (S. aureus [4]): weak inhibitory effects

CC[C@@H](C)[C@@H](NC(=O)[C@H](N)Cc1ccccc1)C(=O)N[C@H](CCCCN)C(=O)N[C@H](CCCNC(=N)N)C(=O)N[C@@H](C(=O)N[C@H](C)C(=O)N[C@H](CCCNC(=N)N)C(=O)N[C@H](CC(C)C)C(=O)N[C@H](CC(C)C)C(=O)N[C@H](CCCNC(=N)N)C(=O)N[C@H](CCCCN)C(=O)N[C@@H](C(=O)N[C@H](Cc1ccccc1)C(N)=O)[C@H](C)CC)[C@H](C)CC [D-form FIKRIARLLRKIF-NH2, reference compound] (H-[dF][dI][dK][dR][dI][dA][dR][dL][dL][dR][dK][dI][dF]-NH2; N-terminus assumed)
MIC (S. aureus [1]; [6]): 4 µg/mL (≈ 2.39 µM) | inhibitory effect of S. aureus peptidoglycan on the antimicrobial activity (S. aureus [4]): significant inhibitory effects

CC[C@@H](C)[C@@H](NC(=O)CNC(=O)[C@@H](CO)NC(=O)[C@@H](CC(C)C)NC(=O)[C@H](NC(=O)[C@@H](CCCNC(=N)N)NC(=O)CNC(=O)[C@H](NC(=O)[C@@H](CC(C)C)NC(=O)[C@H]1CCCN1C(=O)[C@@H](CC(C)C)NC(=O)[C@H](N)Cc1ccccc1)[C@H](C)CC)C(C)C)C(=O)N[C@H](CC(C)C)C(N)=O [D-form FLPLIGRVLSGIL-NH2, reference compound] (H-[dF][dL][dP][dL][dI]G[dR][dV][dL][dS]G[dI][dL]-NH2; N-terminus assumed)
MIC (S. aureus [1]; [6]): 8 µg/mL (≈ 5.73 µM)

KLKLLLKLK-NH2 [L-form KLKLLLKLK-NH2]
MIC (S. aureus [1]; [6]): >128 µg/mL

KLKLLLLLKLK-NH2 [L-form KLKLLLLLKLK-NH2]
MIC (S. aureus [1]; pH 6): 16 µg/mL | MIC (E. coli): 16 µg/mL | MIC (C. albicans): 64 µg/mL | specific degradation of the peptide (S. aureus [5]): specific degradation of the L-form peptide was not observed

FLPLIGRVLSGIL-NH2 [L-form FLPLIGRVLSGIL-NH2, reference compound]
MIC (S. aureus [1]; [6]): 8 µg/mL
